Measured values taken from the supplement of paper PMC10307832.

Assays:
Experiment in all cases: relative viability (nuclei count vs DMSO), 5 days (fraction); higher = more cells survive
[1] = compound: CC(C)CCN1c2nc(Nc3cc(F)c(O)c(F)c3)ncc2N(C)C(=O)C1C [BI-D1870] + CCNC(=O)c1noc(-c2cc(C(C)C)c(O)cc2O)c1-c1ccc(CN2CCOCC2)cc1 [Luminespib] (partner 0.01 µM)
Outline: (§1)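 After 5 days of treatment, lung cancer cells in 1536-well plates were fixed and stained in a single step (final 0.05% Triton X-100, 1% formaldehyde, 1 ug/ml Hoechst) and their nuclei counted on 4× images. Treatment had been applied by pin tool the day after seeding as one drug alone or as a fixed anchor-drug dose with five library-drug doses (not always all listed) in √10 steps. Relative viability is the nuclei count of treated wells divided by that of vehicle wells, and values are medians of duplicate plates.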

[2] = compound: CC(C)CCN1c2nc(Nc3cc(F)c(O)c(F)c3)ncc2N(C)C(=O)C1C [BI-D1870] + C[C@@H](Oc1cc(-c2cnn(C3CCNCC3)c2)cnc1N)c1c(Cl)ccc(F)c1Cl [Crizotinib] (partner 1 µM)
Outline: as §1

[3] = compound: CC(C)CCN1c2nc(Nc3cc(F)c(O)c(F)c3)ncc2N(C)C(=O)C1C [BI-D1870] + Nc1nc2[nH]cc(CCc3ccc(C(=O)N[C@@H](CCC(=O)O)C(=O)O)cc3)c2c(=O)[nH]1 [Pemetrexed] (partner 0.2 µM)
Outline: as §1

[4] = compound: O=c1ncccn1[C@@H]1O[C@H](CO)[C@@H](O)[C@H]1O [Zebularine] + COc1cccc2cc(-c3nc([C@H]4CC[C@H](C(=O)O)CC4)n4ncnc(N)c34)[nH]c12 [OSI-027] (partner 0.5 µM)
Outline: as §1

Cell Line	relative viability ([1]; first compound 0.04 µM)	relative viability ([1]; first compound 0.1265 µM)	relative viability ([1]; first compound 0.4 µM)	relative viability ([1]; first compound 1.265 µM)	relative viability ([1]; first compound 4 µM)	relative viability ([2]; first compound 0.04 µM)	relative viability ([2]; first compound 0.1265 µM)	relative viability ([2]; first compound 0.4 µM)	relative viability ([2]; first compound 1.265 µM)	relative viability ([2]; first compound 4 µM)	relative viability ([3]; first compound 0.04 µM)	relative viability ([3]; first compound 0.1265 µM)	relative viability ([3]; first compound 0.4 µM)	relative viability ([3]; first compound 1.265 µM)	relative viability ([3]; first compound 4 µM)	relative viability ([4]; first compound 1 µM)	relative viability ([4]; first compound 3.162 µM)	relative viability ([4]; first compound 10 µM)	relative viability ([4]; first compound 31.62 µM)	relative viability ([4]; first compound 100 µM)
NCI-H1650	0.197	0.212	0.193	0.212	0.2	0.984	0.905	0.936	0.777	0.801	0.405	0.358	0.338	0.427	0.373	0.842	0.663	0.285	0.834	0.416
NCI-H1651	0.902	0.743	0.764	1.03	0.843	0.91	0.821	0.821	0.939	0.872	0.566	0.561	0.547	0.629	0.54	0.735	0.69	0.549	0.716	0.447
NCI-H1666	1.02	0.977	1.01	1.05	0.825	0.932	0.813	1.1	1.04	0.803	0.857	0.835	0.895	0.812	0.779	0.721	0.785	0.634	0.947	0.979
NCI-H1734	0.19	0.175	0.188	0.187	0.222	0.806	0.618	0.593	0.664	0.645	0.403	0.4	0.416	0.412	0.347	0.672	0.556	0.488	0.425	0.317
NCI-H1755	0.577	0.542	0.413	0.771	0.316	0.977	0.838	0.876	0.829	0.762	0.497	0.469	0.408	0.465	0.408	0.801	0.732	0.631	0.85	0.566
NCI-H1792	0.505	0.432	0.393	0.592	0.344	1.06	0.994	0.908	1.13	0.858	1.12	0.795	0.706	1.11	0.634	0.67	0.668	0.318	0.384	0.366
NCI-H1915	0.957	0.673	0.732	0.873	0.761	0.932	0.835	0.962	0.935	0.881	0.473	0.489	0.458	0.419	0.381	0.672	0.548		0.622	0.486
NCI-H1944	0.841	0.691	0.669	0.879	0.763	1.19	0.978	1.05	1.36	1.11	0.899	0.603	0.599	0.631	0.552	0.445	0.466	0.385	0.434	0.421
NCI-H1975	0.27	0.101	0.308	0.257	0.208	1.05	0.988	1.01	1.03	0.484	0.299	0.272	0.292	0.305	0.238	0.845	0.695	0.383	0.335	0.23
NCI-H1993	1	0.629	0.972	1	0.834	0.891	0.842	0.801	0.916	0.73	0.646	0.605	0.582	0.594	0.475	0.532	0.545	0.52	0.543	0.498
NCI-H2009	1.1	1.01	0.93	0.999	0.59	1.06	0.996	0.962	0.609	0.457	1.06	1.11	1.1	0.993	0.877	0.687	0.607	0.508	0.515	0.366
NCI-H2023	1.03	0.48	0.685	0.795	0.385	0.724	0.525	0.579	0.612	0.497	0.24	0.255	0.288	0.255	0.149	0.471	0.437	0.314	0.457	0.302
NCI-H2085	0.483	0.452	0.503	0.407	0.364	0.861	0.561	0.819	0.724	0.772	0.924	0.802	0.887	0.881	0.603	0.737	0.537	0.602	0.769	0.516
